Measured values as given in patent publication US20110224231A1, “Novel Lactams as Beta Secretase Inhibitors” (Pfizer Inc., priority 2008, published 2011).

Molecular target: T1, soluble human BACE (Homo sapiens, UniProt P56817)
T1 construct: cells secreting human recombinant soluble BACE; made in house; conditioned medium
Assay: BACE activity Cell Free Assay (ELISA of cleaved synthetic APP substrate)
Assay type: biochemical
Description: A synthetic APP substrate that can be cleaved by beta˜secretase and having N-terminal biotin is used to assay beta-secretase activity in the presence or absence of the inhibitory compounds. […] The substrate and test compounds are added to 384 well polypropylene plates. The reaction is initiated by the addition of soluble BACE enzyme to a final volume of 12.5 μL per well. The final assay conditions are: 0.001˜300 μM compound inhibitor, 0.05M sodium acetate (pH 4.5), 3 μM substrate, soluble human BACE, and 2% DMSO. Concentrated conditioned media from cells secreting human recombinant soluble BACE was titrated to provide a source of BACE enzyme. The cell media can be used as either a crude BACE prep or BACE can be purified using any number of techniques, including immobilized BACE inhibitor purification columns. The assay mixture is incubated for 1 hour at 37° C., and the reaction is quenched by the addition of an equal volume of 0.1M Tris, pH 8. Half of the quenched mix is incubated on clear streptavidin coated 384 well polystyrene plates for 1 hour. An ELISA is then performed using an in˜house antibody that specifically recognizes the new C˜terminus created after cleavage by BACE. […] (These polyclonal antibodies were raised in rabbits by immunizing with antigen comprised of six amino acid residues present at the carboxy terminus of the wild-type soluble APPbeta sequence (NH2-ISEVKM-COOH) or seven amino acid residues present at the carboxy terminus of the Swedish mutation at the beta cleavage site (NH2-EISEVNL˜COOH) conjugated to keyhole limpet hemacyanin by methods known to those skilled in the art.) A secondary anti˜species Horseradish Peroxidase (HRP) conjugated antibody is then utilized. The readout, following assay development with TMB substrate and quenching with 0.09M sulfuric acid, is absorbance at 450 nm.

T1 sequence (P56817 46-457 limits assumed): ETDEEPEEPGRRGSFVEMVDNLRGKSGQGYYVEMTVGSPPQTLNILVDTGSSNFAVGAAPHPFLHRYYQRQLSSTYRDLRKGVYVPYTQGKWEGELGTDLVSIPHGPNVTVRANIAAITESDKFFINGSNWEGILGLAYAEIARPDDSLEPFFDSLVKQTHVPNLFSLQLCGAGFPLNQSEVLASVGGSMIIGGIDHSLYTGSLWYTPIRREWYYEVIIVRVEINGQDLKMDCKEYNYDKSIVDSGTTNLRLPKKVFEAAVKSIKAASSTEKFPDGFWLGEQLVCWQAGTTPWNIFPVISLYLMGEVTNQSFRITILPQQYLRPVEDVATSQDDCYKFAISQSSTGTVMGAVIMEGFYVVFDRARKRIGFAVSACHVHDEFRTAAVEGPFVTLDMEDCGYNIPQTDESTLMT

Structure (SMILES): CCOc1cccc(CN2CCC3(C=CC(=O)N3c3cccc(F)c3)CC2C)c1 (racemic) [Example 1, Racemic (5R,7S),(5S,7R)-8-(3-ethoxybenzyl)-1-(3-fluorophenyl)-7-methyl-1,8-diazaspiro[4.5]dec-3-en-2-one]
- IC50: 10 to 100 µM

Structure (SMILES): Cc1ccc(Oc2cccc(CN3CCC4(C=CC(=O)N4c4cccc(F)c4)CC3C)c2)cc1 (racemic) [Example 2, Racemic (5R,7S),(5S,7R)-1-(3-fluorophenyl)-7-methyl-8-[3-(4-methylphenoxy)benzyl]-1,8-diazaspiro[4.5]dec-3-en-2-one]
- IC50: 1 to 10 µM

Structure (SMILES): COc1ccc(Oc2cccc(CN3CCC4(C=CC(=O)N4c4cccc(F)c4)CC3C)c2)cc1 (racemic) [Example 3, Racemic (5R,7S),(5S,7R)-1-(3-fluorophenyl)-8-[3-(4-methoxyphenoxy)benzyl]-7-methyl-1,8-diazaspiro[4.5]dec-3-en-2-one]
- IC50: 10 to 100 µM

Structure (SMILES): CC1CC2(C=CC(=O)N2c2cccc(F)c2)CCN1Cc1cccc(S(=O)(=O)N2CCCC2)c1 (racemic) [Example 4, Racemic (5R,7S),(5S,7R)-1-(3-fluorophenyl)-7-methyl-8-[3-(pyrrolidin-1-ylsulfonyl)benzyl]-1,8-diazaspiro[4.5]dec-3-en-2-one]
- IC50: 10 to 100 µM

Structure (SMILES): CC1CC2(C=CC(=O)N2c2cccc(F)c2)CCN1Cc1cccc(COc2cc(F)cc(F)c2)c1 (racemic) [Example 5, Racemic (5R,7S),(5S,7R)-8-{3-[(3,5-difluorophenoxy)methyl]benzyl}-1-(3-fluorophenyl)-7-methyl-1,8-diazaspiro[4.5]dec-3-en-2-one]
- IC50: 10 to 100 µM

Structure (SMILES): CC1CC2(C=CC(=O)N2c2cccc(F)c2)CCN1Cc1cccc(O)n1 (racemic) [Example 6, Racemic (5R,7S),(5S,7R)-1-(3-fluorophenyl)-8-[(6-hydroxypyridin-2-yl)methyl]-7-methyl-1,8-diazaspiro[4.5]dec-3-en-2-one]
- IC50: 100 to 300 µM

Structure (SMILES): CC1CC2(C=CC(=O)N2c2cccc(F)c2)CCN1Cc1cccc(C#N)c1 (racemic) [Example 7, Racemic 3-{[(5R,7S),(5S,7R)-1-(3-fluorophenyl)-7-methyl-2-oxo-1,8-diazaspiro[4.5]dec-3-en-8-yl]methyl}benzonitrile]
- IC50: 10 to 100 µM

Structure (SMILES): COc1cccc(CN2CCC3(C=CC(=O)N3c3cccc(F)c3)CC2C)c1 (racemic) [Example 8, Racemic (5R,7S),(5S,7R)-1-(3-fluorophenyl)-8-(3-methoxybenzyl)-7-methyl-1,8-diazaspiro[4.5]dec-3-en-2-one]
- IC50: 100 to 300 µM

Structure (SMILES): CC1CC2(C=CC(=O)N2c2cccc(F)c2)CCN1Cc1ccc(O)cc1O (racemic) [Example 9, Racemic (5R,7S),(5S,7R)-8-(2,4-dihydroxybenzyl)-1-(3-fluorophenyl)-7-methyl-1,8-diazaspiro[4.5]dec-3-en-2-one]
- IC50: 100 to 300 µM

Structure (SMILES): CCCn1nccc1CN1CCC2(C=CC(=O)N2c2cccc(F)c2)CC1C (racemic) [Example 10, Racemic (5R,7S),(5S,7R)-1-(3-fluorophenyl)-7-methyl-8-[(1-propyl-1H-pyrazol-5-yl)methyl]-1,8-diazaspiro[4.5]dec-3-en-2-one]
- IC50: 10 to 100 µM

Structure (SMILES): CC1CC2(C=CC(=O)N2c2cccc(F)c2)CCN1Cc1ccc2[nH]ccc2c1 (racemic) [Example 11, Racemic (5R,7S),(5S,7R)-1-(3-fluorophenyl)-8-(1H-indol-5-ylmethyl)-7-methyl-1,8-diazaspiro[4.5]dec-3-en-2-one]
- IC50: 10 to 100 µM

Structure (SMILES): COc1cc(CN2CCC3(C=CC(=O)N3c3cccc(F)c3)CC2C)ccc1O (racemic) [Example 12, Racemic (5R,7S),(5S,7R)-1-(3-fluorophenyl)-8-(4-hydroxy-3-methoxybenzyl)-7-methyl-1,8-diazaspiro[4.5]dec-3-en-2-one]
- IC50: 1 to 10 µM

Structure (SMILES): COc1cc(CN2CCC3(C=CC(=O)N3c3cccc(F)c3)CC2C)ccc1F (racemic) [Example 13, Racemic (5R,7S),(5S,7R)-8-(4-fluoro-3-methoxybenzyl)-1-(3-fluorophenyl)-7-methyl-1,8-diazaspiro[4.5]dec-3-en-2-one]
- IC50: 10 to 100 µM

Structure (SMILES): COc1ccc(F)c(CN2CCC3(C=CC(=O)N3c3cccc(F)c3)CC2C)c1 (racemic) [Example 14, Racemic (5R,7S),(5S,7R)-8-(2-fluoro-5-methoxybenzyl)-1-(3-fluorophenyl)-7-methyl-1,8-diazaspiro[4.5]dec-3-en-2-one]
- IC50: 100 to 300 µM

Structure (SMILES): CC1CC2(C=CC(=O)N2c2cccc(F)c2)CCN1Cc1ccc(O)c(Cl)c1 (racemic) [Example 15, Racemic (5R,7S),(5S,7R)-8-(3-chloro-4-hydroxybenzyl)-1-(3-fluorophenyl)-7-methyl-1,8-diazaspiro[4.5]dec-3-en-2-one]
- IC50: 1 to 10 µM

Structure (SMILES): CC(C)Oc1cccc(CN2CCC3(C=CC(=O)N3c3cccc(F)c3)CC2C)c1 (racemic) [Example 16, Racemic (5R,7S),(5S,7R)-1(3-fluorophenyl)-8-(3-isopropoxybenzyl)-7-methyl-1,8-diazaspiro[4.5]dec-3-en-2-one]
- IC50: 1 to 10 µM

Structure (SMILES): CCCOc1cccc(CN2CCC3(C=CC(=O)N3c3cccc(F)c3)CC2C)c1 (racemic) [Example 17, Racemic (5R,7S),(5S,7R)-1-(3-fluorophenyl)-7-methyl-8-(3-propoxybenzyl)-1,8-diazaspiro[4.5]dec-3-en-2-one]
- IC50: 10 to 100 µM

Structure (SMILES): CC(C)COc1cccc(CN2CCC3(C=CC(=O)N3c3cccc(F)c3)CC2C)c1 (racemic) [Example 18, Racemic (5R,7S),(5S,7R)-1-(3-fluorophenyl)-8-(3-isobutoxybenzyl)-7-rnethyl-1,8-diazaspiro[4.5]dec-3-en-2-one]
- IC50: 10 to 100 µM

Structure (SMILES): CC1CC2(C=CC(=O)N2c2cccc(F)c2)CCN1Cc1cccc(-c2ccccn2)c1 (racemic) [Example 19, Racemic (5R,7S),(5S,7R)-1-(3-fluorophenyl)-7-methyl-8-(3-pyridin-2-ylbenzyl)-1,8-diazaspiro[4.5]dec-3-en-2-one]
- IC50: 10 to 100 µM

Structure (SMILES): CC1CC2(C=CC(=O)N2c2cccc(F)c2)CCN1Cc1cccc(OC2CCCC2)c1 (racemic) [Example 20, Racemic (5R,7S),(5S,7R)-8-[3-(cyclopentyloxy)benzyl]-1-(3-fluorophenyl)-7-methyl-1,8-diazaspiro[4.5]dec-3-en-2-one]
- IC50: 10 to 100 µM

Structure (SMILES): Cc1ccncc1-c1cccc(CN2CCC3(C=CC(=O)N3c3cccc(F)c3)CC2C)c1 (racemic) [Example 21, Racemic (5R,7S),(5S,7R)-1-(3-fluorophenyl)-7-methyl-8-[3-(4-methylpyridin-3-yl)benzyl]-1,8-diazaspiro[4.5]dec-3-en-2-one]
- IC50: 1 to 10 µM

Structure (SMILES): CC1CC2(C=CC(=O)N2c2cccc(F)c2)CCN1Cc1cccc(Oc2ccccc2)c1 (racemic) [Example 22, Racemic (5R,7S),(5S,7R)-1-(3-fluorophenyl)-7-methyl-8-(3-phenoxybenzyl)-1,8-diazaspiro[4.5]dec-3-en-2-one]
- IC50: 10 to 100 µM

Structure (SMILES): CC1CC2(C=CC(=O)N2c2cccc(F)c2)CCN1Cc1cc(Br)ccc1F (racemic) [Example 23, Racemic (5R,7S),(5S,7R)-8-(5-bromo-2-fluorobenzyl)-1-(3-fluorophenyl)-7-methyl-1,8-diazaspiro[4.5]dec-3-en-2-one]
- IC50: 10 to 100 µM

Structure (SMILES): CC1CC2(C=CC(=O)N2c2cccc(F)c2)CCN1Cc1ccc(F)c(Br)c1 (racemic) [Example 24, Racemic (5R,7S),(5S,7R)-8-(3-bromo-4-fluorobenzyl)-1-(3-fluorophenyl)-7-methyl-1,8-diazaspiro[4.5]dec-3-en-2-one]
- IC50: 100 to 300 µM

Structure (SMILES): CC1CC2(C=CC(=O)N2c2cccc(F)c2)CCN1Cc1cccc(-c2cncc(C#N)c2)c1 (racemic) [Example 25, Racemic 5-(3-{[(5R,7S),(5S,7R)-1-(3-fluorophenyl)-7-methyl-2-oxo-1,8-diazaspiro[4.5]dec-3-en-8-yl]methyl}phenyl)nicotinonitrile]
- IC50: 10 to 100 µM

Structure (SMILES): CC1CC2(C=CC(=O)N2c2cccc(F)c2)CCN1Cc1nc(-c2ccc(C#N)cc2)cs1 (racemic) [Example 26, Racemic 4-(2-{[(5R,7S),(5S,7R)-1-(3-fluorophenyl)-7-methyl-2-oxo-1,8-diazaspiro[4.5]dec-3-en-8-yl]methyl}-1,3-thiazol-4-yl)benzonitrile]
- IC50: 10 to 100 µM

Structure (SMILES): CC1CC2(C=CC(=O)N2c2cccc(F)c2)CCN1Cc1nc(-c2cccc(C#N)c2)cs1 (racemic) [Example 27, Racemic 3-(2-{[(5R,7S),(5S,7R)-1-(3-fluorophenyl)-7-methyl-2-oxo-1,8-diazaspiro[4.5]dec-3-en-8-yl]methyl}-1,3-thiazol-4-yl)benzonitrite]
- IC50: 10 to 100 µM

Structure (SMILES): CC(C)NS(=O)(=O)c1cccc(CN2CCC3(C=CC(=O)N3c3cccc(F)c3)CC2C)c1 (racemic) [Example 28, Racemic 3-{[(5R,7S),(5S,7R)-1-(3-fluorophenyl)-7-methyl-2-oxo-1,8-diazaspiro[4.5]dec-3-en-8-yl]methyl}-N-isopropylbenzenesulfonamide]
- IC50: 10 to 100 µM

Structure (SMILES): CC1CC2(C=CC(=O)N2c2cccc(F)c2)CCN1Cc1cccc(Oc2ccc(Cl)cc2)c1 (racemic) [Example 29, Racemic (5R,7S),(5S,7R)-8-[3-(4-chlorophenoxy)benzyl]-1-(3-fluorophenyl)-7-methyl-1,8-diazaspiro[4.5]dec-3-en-2-one]
- IC50: 10 to 100 µM
